According to PubChem BioAssay AID248 (DTP/NCI, 2004):
Several values for one entry are separate records, joined by “and”; a condition that tells them apart may be missing. Identical values can stand only once. Inconclusive results and toxic doses are left out. No stated cut-off is given here; in the data, active means T/C of 150% or more; inactive means T/C below 125%.

Tested on: L1210 leukemia ip in BDF1 mice, survival T/C
Assay: NCI In Vivo Anticancer Drug Screen. Data for tumor model L1210 Leukemia (intraperitoneal) in B6D2F1 (BDF1) mice
Details: endpoint: mean survival time, higher = longer survival
In short: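 Ratio derived from survival: compound-dosed mice over vehicle-dosed mice, all bearing a transplantable tumor.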

[1] = dose: 100.0 mg/kg/injection, schedule: Q01DX009 (ip), vehicle: saline with Tween-80
[2] = dose: 200.0 mg/kg/injection, schedule: Q01DX009 (ip), vehicle: saline with Tween-80
[3] = dose: 100.0 mg/kg/injection, schedule: Q04DX003 (ip), vehicle: saline with Tween-80
[4] = dose: 200.0 mg/kg/injection, schedule: Q04DX003 (ip), vehicle: saline with Tween-80
[5] = dose: 400.0 mg/kg/injection, schedule: Q04DX003 (ip), vehicle: saline with Tween-80
[6] = dose: 10.0 mg/kg/injection, schedule: Q01DX001 (ip), vehicle: saline
[7] = dose: 20.0 mg/kg/injection, schedule: Q01DX001 (ip), vehicle: saline
[8] = dose: 100.0 mg/kg/injection, schedule: Q04DX002 (ip), vehicle: saline with Tween-80
[9] = dose: 100.0 mg/kg/injection, schedule: Q04DX003 (ip), vehicle: saline
[10] = dose: 200.0 mg/kg/injection, schedule: Q04DX003 (ip), vehicle: saline
[11] = dose: 400.0 mg/kg/injection, schedule: Q04DX003 (ip), vehicle: saline

Measured: T/C

O=C(CI)Nc1cc(C(F)(F)F)ccc1Cl
inactive: dose: 25.0 mg/kg/injection, schedule: Q04DX003 (ip), vehicle: Klucel (hydroxypropylcellulose) (HPC) 102 % of control | dose: 50.0 mg/kg/injection, schedule: Q04DX003 (ip), vehicle: Klucel (hydroxypropylcellulose) (HPC) 94 % of control

O=C1OC(OC(=O)c2ccccc2)C(NC2CCCCC2)=C1Br (stereo not given)
inactive: [1] 98 % of control | [2] 96 % of control | dose: 400.0 mg/kg/injection, schedule: Q01DX009 (ip), vehicle: saline with Tween-80 98 % of control

CC(=O)ON1CCC=NC1
inactive: dose: 50.0 mg/kg/injection, schedule: Q04DX002 (ip), vehicle: saline 102 % of control | dose: 100.0 mg/kg/injection, schedule: Q04DX002 (ip), vehicle: saline 91 % of control | dose: 200.0 mg/kg/injection, schedule: Q04DX002 (ip), vehicle: saline 91 % of control | dose: 400.0 mg/kg/injection, schedule: Q04DX002 (ip), vehicle: saline 109 % of control

CCCNC(=O)C1C2C=CC(CC2)C1C(=O)NCCC (stereo not given)
inactive: [3] 92 % of control | [4] 100 % of control | [5] 96 % of control

CC1CN(C(C)C)C1
inactive: dose: 100.0 mg/kg/injection, schedule: Q01DX001 (ip), vehicle: acetone 101 % of control | dose: 200.0 mg/kg/injection, schedule: Q01DX001 (ip), vehicle: acetone 97 % of control

C1CCC(N=C(NC2CCCCC2)OC2CCCCC2)CC1
inactive: dose: 11.1 mg/kg/injection, schedule: Q01DX Z (ip), vehicle: methylcellulose (MC) 97 % of control | dose: 16.6 mg/kg/injection, schedule: Q01DX Z (ip), vehicle: methylcellulose (MC) 89 % of control | dose: 25.0 mg/kg/injection, schedule: Q01DX Z (ip), vehicle: methylcellulose (MC) 101 % of control

ClCCCN(CCCCl)c1ccc(C=Nc2cccc(Cl)c2)c(Cl)c1
inactive: dose: 100.0 mg/kg/injection, schedule: Q04DX003 (ip), vehicle: Klucel (hydroxypropylcellulose) (HPC) 101 % of control | dose: 200.0 mg/kg/injection, schedule: Q04DX003 (ip), vehicle: Klucel (hydroxypropylcellulose) (HPC) 102 % of control | dose: 400.0 mg/kg/injection, schedule: Q04DX003 (ip), vehicle: Klucel (hydroxypropylcellulose) (HPC) 95 % of control

CC1(C)N=C(N)N=C(N)N1c1cccc(OCCOc2cccc(N)c2)c1
inactive: dose: 5.0 mg/kg/injection, schedule: Q01DX001 (ip), vehicle: saline 91 % of control | [6] 92 % of control | [7] 94 % of control | dose: 40.0 mg/kg/injection, schedule: Q01DX001 (ip), vehicle: saline 89 % of control | dose: 100.0 mg/kg/injection, schedule: Q01DX001 (ip), vehicle: Klucel (hydroxypropylcellulose) (HPC) 106 % of control

O=[N+]([O-])c1ccc(S)c(Cl)c1
inactive: dose: 12.5 mg/kg/injection, schedule: Q01DX009 (ip), vehicle: Klucel (hydroxypropylcellulose) (HPC) 104 % of control | dose: 25.0 mg/kg/injection, schedule: Q01DX009 (ip), vehicle: Klucel (hydroxypropylcellulose) (HPC) 104 % of control

Nc1nc(NCCCc2ccccc2)c(N=Nc2ccccc2)c(=O)[nH]1
inactive: dose: 100.0 mg/kg/injection, schedule: Q01DX001 (ip), vehicle: saline with Tween-80 106 % of control | [1] 98 % of control and 100 % of control | [8] 94 % of control | dose: 200.0 mg/kg/injection, schedule: Q01DX001 (ip), vehicle: saline with Tween-80 107 % of control | [2] 93 % of control and 98 % of control | dose: 200.0 mg/kg/injection, schedule: Q04DX002 (ip), vehicle: saline with Tween-80 93 % of control and 89 % of control | [4] 86 % of control | dose: 400.0 mg/kg/injection, schedule: Q01DX001 (ip), vehicle: saline with Tween-80 104 % of control | dose: 400.0 mg/kg/injection, schedule: Q04DX002 (ip), vehicle: saline with Tween-80 94 % of control and 89 % of control | [5] 86 % of control

CCOC(=O)C1=CN=NC1=[N+]=[N-]
inactive: [6] 96 % of control | [7] 102 % of control

CN(C)C(=O)c1cccc([N+](=O)[O-])c1
inactive: [3] 97 % of control | [4] 94 % of control

COc1ccc(CC(=O)O)c(OC)c1
inactive: dose: 100.0 mg/kg/injection, schedule: Q01DX007 (ip), vehicle: saline with Tween-80 98 % of control | [9] 94 % of control | dose: 200.0 mg/kg/injection, schedule: Q01DX007 (ip), vehicle: saline with Tween-80 95 % of control | [10] 99 % of control | [11] 94 % of control

Cc1[nH]c2ccccc2c1C1CCC(=O)C1 (stereo not given)
inactive: dose: 100.0 mg/kg/injection, schedule: Q01DX001 (ip), vehicle: carboxymethylcellulose (CMC) 100 % of control | dose: 200.0 mg/kg/injection, schedule: Q01DX001 (ip), vehicle: carboxymethylcellulose (CMC) 89 % of control | dose: 400.0 mg/kg/injection, schedule: Q01DX001 (ip), vehicle: carboxymethylcellulose (CMC) 93 % of control

CC(=O)OCC1OC(n2cnc3c(Cl)nc(N)nc32)C(OC(C)=O)C1OC(C)=O (stereo not given)
inactive: dose: 100.0 mg/kg/injection, schedule: Q01DX005 (ip), vehicle: saline 103 % of control | dose: 200.0 mg/kg/injection, schedule: Q01DX005 (ip), vehicle: saline 101 % of control

O=C1CC(N2C(=O)C3C4C=CC(CC4)C3C2=O)C(=O)N1 (stereo not given)
inactive: [9] 97 % of control | [10] 97 % of control | [11] 97 % of control

Nc1ccc(-c2ccc(N)c(Oc3ccccc3)c2)cc1Oc1ccccc1
inactive: dose: 100.0 mg/kg/injection, schedule: Q01DX001 (ip), vehicle: other 92 % of control | dose: 200.0 mg/kg/injection, schedule: Q01DX001 (ip), vehicle: other 97 % of control | dose: 400.0 mg/kg/injection, schedule: Q01DX001 (ip), vehicle: other 94 % of control

O=[N+]([O-])c1ccc(N/N=C2\C3CC(c4ccccc4)C2C(c2ccccc2)=C3c2ccccc2)c([N+](=O)[O-])c1 (stereo not given)
inactive: dose: 12.5 mg/kg/injection, schedule: Q01DX009 (ip), vehicle: saline with Tween-80 91 % of control | dose: 25.0 mg/kg/injection, schedule: Q01DX009 (ip), vehicle: saline with Tween-80 88 % of control | dose: 50.0 mg/kg/injection, schedule: Q01DX009 (ip), vehicle: saline with Tween-80 96 % of control | [2] 89 % of control

C=C1C(=O)N(C)CCC1C(CC)C(=O)OC (stereo not given)
inactive: dose: 25.0 mg/kg/injection, schedule: Q01DX001 (ip), vehicle: saline 101 % of control | dose: 25.0 mg/kg/injection, schedule: Q04DX003 (ip), vehicle: saline 95 % of control | dose: 25.0 mg/kg/injection, schedule: Q04DX003 (oral), vehicle: saline 107 % of control | dose: 50.0 mg/kg/injection, schedule: Q01DX001 (ip), vehicle: saline 88 % of control | dose: 50.0 mg/kg/injection, schedule: Q04DX003 (ip), vehicle: saline 93 % of control | dose: 50.0 mg/kg/injection, schedule: Q04DX003 (oral), vehicle: saline 109 % of control | dose: 100.0 mg/kg/injection, schedule: Q01DX001 (ip), vehicle: saline 98 % of control | [9] 93 % of control | dose: 100.0 mg/kg/injection, schedule: Q04DX003 (oral), vehicle: saline 98 % of control | dose: 200.0 mg/kg/injection, schedule: Q01DX001 (ip), vehicle: saline 93 % of control | [10] 95 % of control | dose: 200.0 mg/kg/injection, schedule: Q04DX003 (oral), vehicle: saline 94 % of control

C=C(C)C[N+]1(CC)CCN=C1CCCCCCCCCCCCCCCCC (stereo not given)
inactive: dose: 0.31 mg/kg/injection, schedule: Q01DX Z (ip), vehicle: saline 100 % of control | dose: 0.47 mg/kg/injection, schedule: Q01DX Z (ip), vehicle: saline 96 % of control | dose: 0.7 mg/kg/injection, schedule: Q01DX Z (ip), vehicle: saline 102 % of control | dose: 1.05 mg/kg/injection, schedule: Q01DX Z (ip), vehicle: saline 96 % of control

O=C(N/N=C/c1cccc2ccccc12)c1cccnc1
inactive: dose: 100.0 mg/kg/injection, schedule: Q01DX009 (ip), vehicle: Klucel (hydroxypropylcellulose) (HPC) 101 % of control

NC(=NCc1ccccc1)C(F)(F)C(F)(F)F
inactive: dose: 44.0 mg/kg/injection, schedule: Q01DX Z (ip), vehicle: other 103 % of control and 118 % of control | dose: 66.0 mg/kg/injection, schedule: Q01DX Z (ip), vehicle: other 100 % of control and 101 % of control | dose: 100.0 mg/kg/injection, schedule: Q01DX Z (ip), vehicle: other 103 % of control and 90 % of control | dose: 150.0 mg/kg/injection, schedule: Q01DX Z (ip), vehicle: other 92 % of control and 90 % of control

COc1ccc(CC(C)=C(C#N)C#N)cc1OC
inactive: dose: 25.0 mg/kg/injection, schedule: Q04DX002 (ip), vehicle: saline with Tween-80 103 % of control | dose: 50.0 mg/kg/injection, schedule: Q04DX002 (ip), vehicle: saline with Tween-80 97 % of control | [8] 97 % of control
